Measurements reported in US20060069132A1, “Azolecarboxamide herbicides” (priority 2004, published 2006).

Key:
giant foxtail = assay: Test B pre-/postemergence herbicide test; format: in vivo, Setaria faberi
Summary of the method: (§1)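 Plants compared with untreated controls 13–15 days post-treatment and given a visual 0–100 injury score. Applications: preemergence to seeds; postemergence at 1- to 4-leaf (2–18 cm); paddy species flooded, 2-leaf stage. Vehicle non-phytotoxic, surfactant included.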

barnyardgrass [1] = assay: Test B pre-/postemergence herbicide test; format: in vivo, Echinochloa crus-galli
Summary of the method: (§2)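 Formulation: non-phytotoxic solvent mix with surfactant. Timing: preemergence on seed and postemergence on 2–18 cm plants, applied concurrently. Readout after 13–15 d greenhouse: visual 0–100 control rating against controls.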

blackgrass = assay: Test B postemergence herbicide test; format: in vivo, Alopecurus myosuroides; details: scale 0 (no effect) to 100 (complete control)
Summary of the method: (§3)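 Scale 0–100: zero equals no visible effect, 100 complete control, judged by eye relative to controls. Timing: 13 to 15 days in greenhouse post-treatment. Growth stage at spraying: two leaves (paddy) or one to four leaves, 2–18 cm (postemergence).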

morningglory = assay: Test B pre-/postemergence herbicide test; format: in vivo, Ipomoea coccinea; details: for Morningglory plant response rating: scale 0 (no effect) to 100 (complete control)
Summary of the method: as §2

velvetleaf = assay: Test B pre-/postemergence herbicide test; format: in vivo, Abutilon theophrasti
Summary of the method: as §1

Surinam grass = assay: Test B pre-/postemergence herbicide test; format: in vivo, Urochloa decumbens
Summary of the method: as §1

rice = assay: Test B flooded paddy test; format: in vivo, Oryza sativa; details: 1000 g ai/ha, scale 0 to 100 (0 no effect, 100 complete control)
Summary of the method: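 Formulated test chemicals went onto postemergence plants measuring 2 to 18 cm, at one to four leaves. For the paddy assay, species had reached two leaves. Scoring took place 13–15 days later by eye, relative to untreated plants, using 0 for no effect up to 100 for full control.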

wheat = assay: Test B postemergence herbicide test; format: in vivo, Triticum aestivum; parameters: key to Wheat plant response rating: 0 = no effect, 100 = complete control
Summary of the method: (§4)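 Greenhouse test; postemergence application to plants at 1–4 leaves (2–18 cm); paddy species at 2 leaves; evaluated visually vs controls at 13–15 days; scale 0–100 (100 = complete control).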

pigweed = assay: Test B pre-/postemergence herbicide test; format: in vivo, Amaranthus retroflexus
Summary of the method: as §1

corn = assay: Test B pre-/postemergence herbicide test; format: in vivo, Zea mays
Summary of the method: as §1

barnyardgrass [2] = assay: Test B flooded paddy test; format: in vivo, Echinochloa crus-galli; details: 1000 g ai/ha, scale 0 to 100 (0 no effect, 100 complete control)
Summary of the method: as §3

ducksalad = assay: Test B flooded paddy test; format: in vivo, Heteranthera limosa; details: 1000 g ai/ha, scale 0 to 100 (0 no effect, 100 complete control)
Summary of the method: as §3

[3] = tested on: small flower umbrella sedge; assay: Test B flooded paddy test; format: in vivo, Cyperus difformis; details: 1000 g ai/ha, scale 0 to 100 (0 no effect, 100 complete control)
Summary of the method: as §3

wild oat = assay: Test B postemergence herbicide test; format: in vivo, Avena fatua; details: scale 0 (no effect) to 100 (complete control)
Summary of the method: as §4

large crabgrass = assay: Test B pre-/postemergence herbicide test; format: in vivo, Digitaria sanguinalis
Summary of the method: as §1

[4] = 125 g ai/ha, 0 is no effect, 100 is complete control, preemergence
[5] = 125 g ai/ha, visual rating, scale 0 (no effect) to 100 (complete control), postemergence
[6] = Postemergence, 500 g ai/ha, scale 0 (no effect) to 100 (complete control)
[7] = 125 g ai/ha, visual rating, postemergence
[8] = Postemergence, 500 g ai/ha, visual rating after 13 to 15 days, scale 0 (no effect) to 100 (complete control)
[9] = Preemergence, 500 g ai/ha, scale 0 to 100
[10] = postemergence, 125 g ai/ha, visual rating, scale 0 (no effect) to 100 (complete control)
[11] = preemergence, 125 g ai/ha, 0 to 100 scale, 0 is no effect, 100 is complete control
[12] = Postemergence, 500 g ai/ha, visual rating after 13 to 15 days
[13] = postemergence, 125 g ai/ha, visual rating
[14] = 500 g ai/ha, visual rating 0-100, 0 no effect, 100 complete control, preemergence
[15] = postemergence, 500 g ai/ha, visual rating, scale 0 (no effect) to 100 (complete control)
[16] = postemergence, 500 g ai/ha, visual rating

CCNC(=O)c1ccc(F)c(N(C(C)=O)C(=O)c2cc(C(C)(C)C)nn2CC)c1 [Compound 399]
Plant response rating (0 to 100 scale), Foxtail, Giant (giant foxtail; [4]): 100 | Foxtail, Giant plant response rating (giant foxtail; [5]): 30 | Foxtail, Giant plant response rating (giant foxtail; [6]): 50 | Plant response rating (0 to 100 scale), Barnyardgrass (barnyardgrass [1]; [4]): 90 | Barnyardgrass plant response rating (barnyardgrass [1]; [5]): 10 | Barnyardgrass plant response rating (barnyardgrass [1]; [6]): 40 | Blackgrass plant response rating (blackgrass; [7]): 30 | Blackgrass plant response rating (blackgrass; Postemergence, 500 g ai/ha): 70 | Plant response rating (0 to 100 scale), Morningglory (morningglory; [4]): 10 | Morningglory plant response rating (morningglory; [7]): 20 | Morningglory plant response rating (morningglory; Postemergence, 500 g ai/ha): 40 | Plant response rating (0 to 100 scale), Velvetleaf (velvetleaf; [4]): 80 | Velvetleaf plant response rating (velvetleaf; [5]): 20 | Velvetleaf plant response rating (velvetleaf; [6]): 80 | Plant response rating (0 to 100 scale), Surinam Grass (Surinam grass; [4]): 90 | Surinam Grass plant response rating (Surinam grass; [5]): 20 | Surinam Grass plant response rating (Surinam grass; [6]): 40 | Rice plant response rating (rice): 80 | Wheat plant response rating (wheat; [5]): 10 | Wheat plant response rating (wheat; 500 g ai/ha, scale 0 to 100, 0 no effect, 100 complete control, preemergence): 100 | Wheat plant response rating (wheat; [6]): 30 | Plant response rating (0 to 100 scale), Pigweed (pigweed; [4]): 100 | Pigweed plant response rating (pigweed; [5]): 60 | Pigweed plant response rating (pigweed; [6]): 80 | Plant response rating (0 to 100 scale), Corn (corn; [4]): 90 | Corn plant response rating (corn; [5]): 10 | Corn plant response rating (corn; [6]): 40 | Barnyardgrass plant response rating (barnyardgrass [2]): 90 | Ducksalad plant response rating (ducksalad): 90 | Sedge, Umbrella plant response rating [3]: 80 | Oat, Wild plant response rating (wild oat; [7]): 20 | Oat, Wild plant response rating (wild oat; Postemergence, 500 g ai/ha): 40 | Plant response rating (0 to 100 scale), Crabgrass, Large (large crabgrass; [4]): 100 | Crabgrass, Large plant response rating (large crabgrass; [5]): 20 | Crabgrass, Large plant response rating (large crabgrass; [6]): 30

CCOC(=O)c1cccc(NC(=O)c2cc(C(C)(C)C)nn2CCF)c1 [Compound 79]
Plant response rating, Foxtail, Giant (giant foxtail; [8]): 40 | Foxtail, Giant plant response rating (giant foxtail; [9]): 10 | Foxtail, Giant plant response rating (giant foxtail; [10]): 30 | Plant response rating, Foxtail, Giant (giant foxtail; [11]): 10 | Plant response rating, Barnyardgrass (barnyardgrass [1]; [8]): 40 | Barnyardgrass plant response rating (barnyardgrass [1]; [9]): 10 | Barnyardgrass plant response rating (barnyardgrass [1]; [10]): 30 | Plant response rating, Barnyardgrass (barnyardgrass [1]; [11]): 0 | Plant response rating, Blackgrass (blackgrass; [12]): 30 | Blackgrass plant response rating (blackgrass; [13]): 20 | Plant response rating, Morningglory (morningglory; [11]): 0 | Plant response rating, Velvetleaf (velvetleaf; [8]): 80 | Velvetleaf plant response rating (velvetleaf; [10]): 70 | Plant response rating, Velvetleaf (velvetleaf; [11]): 10 | Plant response rating, Surinam Grass (Surinam grass; [8]): 40 | Surinam Grass plant response rating (Surinam grass; [10]): 30 | Plant response rating, Surinam Grass (Surinam grass; [11]): 0 | Rice plant response rating (rice; visual rating, 13 to 15 days): 70 | Plant response rating, Wheat (wheat; [8]): 40 | Wheat plant response rating (wheat; [10]): 30 | Plant response rating, Pigweed (pigweed; [8]): 100 | Pigweed plant response rating (pigweed; [10]): 70 | Plant response rating, Pigweed (pigweed; [11]): 0 | Corn plant response rating (corn; [9]): 0 | Plant response rating, Corn (corn; [11]): 0 | Barnyardgrass plant response rating (barnyardgrass [2]; visual rating, 13 to 15 days): 60 | Ducksalad plant response rating (ducksalad; visual rating, 13 to 15 days): 80 | Sedge, Umbrella plant response rating ([3]; visual rating, 13 to 15 days): 90 | Plant response rating, Oat, Wild (wild oat; [12]): 30 | Oat, Wild plant response rating (wild oat; [13]): 20 | Plant response rating, Crabgrass, Large (large crabgrass; [8]): 30 | Crabgrass, Large plant response rating (large crabgrass; [9]): 0 | Crabgrass, Large plant response rating (large crabgrass; [10]): 20 | Plant response rating, Crabgrass, Large (large crabgrass; [11]): 0

CCn1nc(C(C)(C)C)cc1C(=O)Nc1cccc(C(=O)NC2CC2)n1 [Compound 146]
Plant response rating, Foxtail, Giant (giant foxtail; [14]): 90 | Foxtail, Giant plant response rating (giant foxtail; [10]): 20 | Foxtail, Giant plant response rating (giant foxtail; [15]): 20 | Plant response rating, Foxtail, Giant (giant foxtail; [11]): 10 | Plant response rating, Barnyardgrass (barnyardgrass [1]; [14]): 90 | Barnyardgrass plant response rating (barnyardgrass [1]; [10]): 20 | Barnyardgrass plant response rating (barnyardgrass [1]; [15]): 60 | Plant response rating, Barnyardgrass (barnyardgrass [1]; [11]): 40 | Blackgrass plant response rating (blackgrass; [13]): 10 | Blackgrass plant response rating (blackgrass; [16]): 20 | Plant response rating, Morningglory (morningglory; [14]): 10 | Morningglory plant response rating (morningglory; [13]): 0 | Morningglory plant response rating (morningglory; [16]): 20 | Plant response rating, Morningglory (morningglory; [11]): 0 | Plant response rating, Velvetleaf (velvetleaf; [14]): 90 | Velvetleaf plant response rating (velvetleaf; [10]): 50 | Velvetleaf plant response rating (velvetleaf; [15]): 60 | Plant response rating, Velvetleaf (velvetleaf; [11]): 20 | Plant response rating, Surinam Grass (Surinam grass; [14]): 30 | Surinam Grass plant response rating (Surinam grass; [10]): 10 | Surinam Grass plant response rating (Surinam grass; [15]): 30 | Plant response rating, Surinam Grass (Surinam grass; [11]): 10 | Rice plant response rating (rice; visual rating, 13 to 15 days): 40 | Wheat plant response rating (wheat; [15]): 10 | Plant response rating, Pigweed (pigweed; [14]): 100 | Pigweed plant response rating (pigweed; [10]): 80 | Pigweed plant response rating (pigweed; [15]): 90 | Plant response rating, Pigweed (pigweed; [11]): 100 | Plant response rating, Corn (corn; [14]): 0 | Corn plant response rating (corn; [10]): 10 | Corn plant response rating (corn; [15]): 30 | Plant response rating, Corn (corn; [11]): 0 | Barnyardgrass plant response rating (barnyardgrass [2]; visual rating, 13 to 15 days): 60 | Ducksalad plant response rating (ducksalad; visual rating, 13 to 15 days): 80 | Sedge, Umbrella plant response rating ([3]; visual rating, 13 to 15 days): 90 | Oat, Wild plant response rating (wild oat; [13]): 10 | Oat, Wild plant response rating (wild oat; [16]): 20 | Plant response rating, Crabgrass, Large (large crabgrass; [14]): 100 | Crabgrass, Large plant response rating (large crabgrass; [10]): 10 | Crabgrass, Large plant response rating (large crabgrass; [15]): 20 | Plant response rating, Crabgrass, Large (large crabgrass; [11]): 10
